# According to patent US8466202B2, “Anthracenedione compounds” (Sunten Phytotech Co., Ltd., priority 2006, dated 2013):
# Several values for one entry are separate records, joined by “and”; a condition that tells them apart may be missing. Equal entries are not always repeated.
# Assays:
# healthy male S.D. rats = assay: Feces production in rats over the 10-day period (Example 3); assay type: in vivo, rat; settings: for increase of the feces amount (wet weight): vs control of the same group; for Pellet count / Water content / Wet Weight: Sennosides 3.35 mg/kg; for increase of the feces amount (wet weight), average: average of Days 1, 5 and 10
# Procedure: During this period, the body weights of the rats were weighed each day and recorded. Feces of each rat were studied three times during the period for any unusual observations. Specifically, the amounts of feces were weighed on Days 11, 15, 18, and 21. During observation, each rat was placed in a metabolic cage. Feces were collected every twenty-four hours. The number of collected feces pellets was counted, and the pellets' shapes and colors were evaluated. After weighing the moist feces, they were dried in an oven at 100° C. for twenty-four hours. The water content from the feces was calculated according to the following formula: Water content percentage=[(wet weight−dry weight)/wet weight]×100%. (I) The results are summarized in Table 2 below: The aforementioned STD05 and compounds were studied for the laxative activity. Healthy male S.D. rats (BioLASCO Taiwan Co. Ltd.) were divided into three groups (i.e., Groups 1-3) in this study. In Group I, 6 rats, as negative control, were given no treatment; 6 rats, as positive control, were given 3.35 mg/kg/day Sennosides (Through®, Chung Mei Pharmaceutical Co., Ltd; Active ingredient: Sennosides 20 mg, as sennoside A+B 12 mg, Lot. 012F 006); 6 rats were treated STD05 (8 mg/kg/day); 6 rats were treated with an extract fraction containing aloe-emodin, rhein, and emodin (“ARE”, 8 mg/kg/day); 6 rats were treated with Aloe-emodin (4 mg/kg/day); and 6 rats were treated with Rhein (4 mg/kg/day). In Group II, 6 rats, as negative control, were given no treatment; 6 rats, as positive control, were given 3.35 mg/kg/day Sennosides; 6 rats were treated STD05 (24 mg/kg/day); 6 rats were treated with an extract fraction containing ARE (24 mg/kg/day); 6 rats were treated with Chrysophanol (4 mg/kg/day); and 6 rats were treated with Emodin (4 mg/kg/day). In Group III, 6 rats, as negative control, were given no treatment; 6 rats were treated with Physcoin (4 mg/kg/day); and 6 rats were treated with a mixture of chrysophanol and physcion (8 mg/kg/day, “CP”). The experiments were carried out under controlled temperature, humidity, and lighting. Each rat was fed standard rat food and water ad libitum in housing that provided a 12-hour light/dark cycle. For statistical comparison, all of the rats were divided into six sets according to the body weights. The first part of the experiment studied the effect of the test substances on feces production. During the 10-day period, the body weights of the rats were weighed each day and recorded. The rat's feces was also studied three times in the manner described above during the 10-day period for any unusual observations. During the 10-day period, any rat that appeared dying was euthanized, dissected, and examined for any illness or injury. Any complications or illness were analyzed by H&E stains to determine the cause of death and to allow for dosage reconsiderations for future experiments. Summarized in Table 4 below are the effects of the compounds, mixtures, or extracts on the rat body weights. During the period, feces produced by the rats were studied days 1, 5, and 10 in the same manner described above. […] In the 10-day period, the rats administered with STD05 produced more feces (wet weight) that the rats in the control group by about 32%. In addition, the pellet counts for the rats administered with STD05 were greater than those for the control rats by about 20%. Furthermore, STD05 increased the water content in feces by about 18%. The same experiments were conducted on rats administered with physcion, aloe-emodin, chrysophanol, rhein, emodin, CP, and ARE.
# [1] = Body weight of rats over the 10-day period (Example 3); assay type: in vivo, rat; design: Body weight Difference: unit not given here; settings: Sennosides 3.35 mg/kg/day; for Body weight Difference, Mean / Body weight End Day 10, Mean: group mean; for Body weight Difference, Mean / Body weight Difference: Day 10 minus Day 1; for Body weight Difference / Body weight End Day 10: individual rats
# Procedure: The aforementioned STD05 and compounds were studied for the laxative activity. Healthy male S.D. rats (BioLASCO Taiwan Co. Ltd.) were divided into three groups (i.e., Groups 1-3) in this study. In Group I, 6 rats, as negative control, were given no treatment; 6 rats, as positive control, were given 3.35 mg/kg/day Sennosides (Through®, Chung Mei Pharmaceutical Co., Ltd; Active ingredient: Sennosides 20 mg, as sennoside A+B 12 mg, Lot. 012F 006); 6 rats were treated STD05 (8 mg/kg/day); 6 rats were treated with an extract fraction containing aloe-emodin, rhein, and emodin (“ARE”, 8 mg/kg/day); 6 rats were treated with Aloe-emodin (4 mg/kg/day); and 6 rats were treated with Rhein (4 mg/kg/day). In Group II, 6 rats, as negative control, were given no treatment; 6 rats, as positive control, were given 3.35 mg/kg/day Sennosides; 6 rats were treated STD05 (24 mg/kg/day); 6 rats were treated with an extract fraction containing ARE (24 mg/kg/day); 6 rats were treated with Chrysophanol (4 mg/kg/day); and 6 rats were treated with Emodin (4 mg/kg/day). In Group III, 6 rats, as negative control, were given no treatment; 6 rats were treated with Physcoin (4 mg/kg/day); and 6 rats were treated with a mixture of chrysophanol and physcion (8 mg/kg/day, “CP”). The experiments were carried out under controlled temperature, humidity, and lighting. Each rat was fed standard rat food and water ad libitum in housing that provided a 12-hour light/dark cycle. For statistical comparison, all of the rats were divided into six sets according to the body weights. The first part of the experiment studied the effect of the test substances on feces production. During the 10-day period, the body weights of the rats were weighed each day and recorded. The rat's feces was also studied three times in the manner described above during the 10-day period for any unusual observations. During the 10-day period, any rat that appeared dying was euthanized, dissected, and examined for any illness or injury. Any complications or illness were analyzed by H&E stains to determine the cause of death and to allow for dosage reconsiderations for future experiments. Summarized in Table 4 below are the effects of the compounds, mixtures, or extracts on the rat body weights.
# [2] = Group I, Day 1, STD05 8 mg/kg, ARE 8 mg/kg, Aloe-emodin 4 mg/kg, Rhein 4 mg/kg
# [3] = Group I, Day 5, STD05 8 mg/kg, ARE 8 mg/kg, Aloe-emodin 4 mg/kg, Rhein 4 mg/kg
# [4] = Group I, Day 10, STD05 8 mg/kg, ARE 8 mg/kg, Aloe-emodin 4 mg/kg, Rhein 4 mg/kg
# [5] = Group I, STD05 8 mg/kg, ARE 8 mg/kg, Aloe-emodin 4 mg/kg, Rhein 4 mg/kg
# [6] = Group II, Day 1, STD05 24 mg/kg, ARE 24 mg/kg, Chrysophanol 4 mg/kg, Emodin 4 mg/kg
# [7] = Group II, Day 5, STD05 24 mg/kg, ARE 24 mg/kg, Chrysophanol 4 mg/kg, Emodin 4 mg/kg
# [8] = Group II, Day 10, STD05 24 mg/kg, ARE 24 mg/kg, Chrysophanol 4 mg/kg, Emodin 4 mg/kg
# [9] = Group II, STD05 24 mg/kg, ARE 24 mg/kg, Chrysophanol 4 mg/kg, Emodin 4 mg/kg
smiles,measurement,setting,value
O=C1c2cccc(O)c2C(=O)c2c(O)cc(CO)cc21 [Aloe-emodin],increase of the feces amount (wet weight),healthy male S.D. rats; Day 1,27%
same,increase of the feces amount (wet weight),healthy male S.D. rats; Day 5,9%
same,increase of the feces amount (wet weight),healthy male S.D. rats; Day 10,20%
same,Pellet count,healthy male S.D. rats; [2],98
same,Water content,healthy male S.D. rats; [2],42.48%
same,Wet Weight,healthy male S.D. rats; [2],17.00 g
same,Pellet count,healthy male S.D. rats; [3],104
same,Water content,healthy male S.D. rats; [3],41.98%
same,Wet Weight,healthy male S.D. rats; [3],20.21 g
same,Pellet count,healthy male S.D. rats; [4],125
same,Water content,healthy male S.D. rats; [4],50.48%
same,Wet Weight,healthy male S.D. rats; [4],28.86 g
same,"increase of the feces amount (wet weight), average",healthy male S.D. rats,19%
same,"Body weight Difference, Mean",[1]; [5],58 g
same,"Body weight End Day 10, Mean",[1]; [5],330 g
same,Body weight Difference,[1]; [5],45 and 50 (2×) and 40 (2×) and 55
same,Body weight End Day 10,[1]; [5],315 (2×) and 335 and 345 (2×) and 325
Cc1cc(O)c2c(c1)C(=O)c1cc(O)cc(O)c1C2=O [Emodin],increase of the feces amount (wet weight),healthy male S.D. rats; Day 1,−30%
same,increase of the feces amount (wet weight),healthy male S.D. rats; Day 5,12%
same,increase of the feces amount (wet weight),healthy male S.D. rats; Day 10,4%
same,Pellet count,healthy male S.D. rats; [6],90
same,Water content,healthy male S.D. rats; [6],42.38%
same,Wet Weight,healthy male S.D. rats; [6],16.86 g
same,Pellet count,healthy male S.D. rats; [7],112
same,Water content,healthy male S.D. rats; [7],51.00%
same,Wet Weight,healthy male S.D. rats; [7],25.51 g
same,Pellet count,healthy male S.D. rats; [8],106
same,Water content,healthy male S.D. rats; [8],53.64%
same,Wet Weight,healthy male S.D. rats; [8],26.21 g
same,"increase of the feces amount (wet weight), average",healthy male S.D. rats,−5%
same,"Body weight Difference, Mean",[1]; [9],32 g
same,"Body weight End Day 10, Mean",[1]; [9],379 g
same,Body weight Difference,[1]; [9],30 and 35 (3×) and 45 and 10
same,Body weight End Day 10,"[1]; Group II, STD05 24 mg/kg, ARE 24 mg/kg, Chrysophanol 4 mg/kg, Emodin 4 mg/kg, in g (unit assumed)",370 and 380 and 405 and 340 and 385 and 395
O=C(O)c1cc(O)c2c(c1)C(=O)c1cccc(O)c1C2=O [Rhein],increase of the feces amount (wet weight),healthy male S.D. rats; Day 1,31%
same,increase of the feces amount (wet weight),healthy male S.D. rats; Day 5,−9%
same,increase of the feces amount (wet weight),healthy male S.D. rats; Day 10,−1%
same,Pellet count,healthy male S.D. rats; [2],102
same,Water content,healthy male S.D. rats; [2],42.58%
same,Wet Weight,healthy male S.D. rats; [2],17.57 g
same,Pellet count,healthy male S.D. rats; [3],89
same,Water content,healthy male S.D. rats; [3],44.55%
same,Wet Weight,healthy male S.D. rats; [3],16.88 g
same,Pellet count,healthy male S.D. rats; [4],119
same,Water content,healthy male S.D. rats; [4],46.53%
same,Wet Weight,healthy male S.D. rats; [4],23.52 g
same,"increase of the feces amount (wet weight), average",healthy male S.D. rats,7%
same,"Body weight Difference, Mean",[1]; [5],51 g
same,"Body weight End Day 10, Mean",[1]; [5],331 g
same,Body weight Difference,[1]; [5],55 (4×) and 50 and 35
same,Body weight End Day 10,[1]; [5],330 (2×) and 340 (2×) and 310 and 335
